Consider four compounds from publication PMC11785708, “Design and synthesis of new quinazolinone derivatives: investigation of antimicrobial and biofilm inhibition effects” (Molecular Diversity, 2024).

Data set [1] deals with methicillin-resistant Staphylococcus aureus (MRSA). More on the design: method as in PMID 32927027. The settings on record: read-out: biofilm formation inhibition IC50; cited from earlier work.
Data set [2] deals with P. aeruginosa ATCC 27953. As to the kind of experiment: MIC determination, P. aeruginosa. The settings on record: serial dilutions, triplicate; for MIC: Pseudomonas aeruginosa, ATCC27953. It counts as cell-based, Pseudomonas aeruginosa. How it is done:
(§1) Serial dilutions of the test compounds were tested to determine their MIC against the most susceptible organisms. The MIC was expressed as the lowest concentration which inhibited the visible growth of the corresponding microorganism. All assays were performed in triplicate.

Data set [3] has as its system P. aeruginosa ATCC 27953. The data set is described as follows: Biofilm inhibition assay (crystal violet). It counts as cell-based. The settings on record: Pseudomonas aeruginosa, ATCC27953, P. aeruginosa ATCC 27953, 24 h. The method, then: Compounds with potential activity against P. aeruginosa ATCC 27953 were tested for the respective biofilm inhibition. The assay was carried out in microtiter plate setup using crystal violet (CV) staining of adherent cells, as modified from.
After 24 h cultivation, the supernatant and planktonic cells were discarded, wells were washed with phosphate buffered saline (PBS) and biofilms were stained with 0.1% CV. CV was subsequently washed then, solubilized with 33% (v/v) glacial acetic acid. The absorbance was measured at 540 nm using SPECTROstar® Nano microplate reader (BMG LABTECH GmbH, Germany). The experiments were performed in triplicate and independently repeated three times. GraphPad Prism 6.0 software was used to estimate the IC50 values, which correspond to […].

The test system of data set [4] is S. aureus ATCC 6538. As to the kind of experiment: Agar well diffusion, S. aureus. The settings on record: Staphylococcus aureus, ATCC6538; 100 μl of test compound 20 mg/ml in DMF; ciprofloxacin and fluconazole 30 μg/ml; 24 h; mean ± SD; read-out: diameters of inhibition zone, S. aureus ATCC 6538. The format is cell-based. The method, then:
(§2) The antimicrobial activity was tested against Gram positive bacteria: Bacillus cereus (B. cereus ATCC 6629), Bacillus subtilis (B. subtilis ATCC 6633), Staphylococcus aureus (S. aureus ATCC 6538), Gram negative bacteria: Klebsiella pneumoniae (K. pneumoniae ATCC 13883), Pseudomonas aeruginosa (P. aeruginosa ATCC 27953) and Candida albicans (C. albicans ATCC 10231). Glycerol stocks were thawed upon need and propagated into nutrient broth at 37 °C. The antibacterial activity of the compounds 9-32 was carried out in vitro using the agar well diffusion method, originally reported by […] and Bauer and coworkers and described by the National Committee for Clinical Laboratory Standards (NCCLS). Bacterial strains, adjusted at […] (equivalent to 0.5 McFarland), were used to inoculate nutrient agar plates. 9-mm diameter wells were punched into the solidified nutrient agar plates using sterile cork borer and 100 μl samples of the test compounds, dissolved in dimethyl formamide (DMF) at 20 mg/ml concentrations, were added and allowed to diffuse at 4 °C for 2 h. Subsequently, the plates were incubated overnight in an upright position at 37 °C. DMF was used as a negative control while ciprofloxacin and fluconazole (30 μg/ml) served as positive controls. After 24 h incubation, the diameters of the growth inhibition zones were recorded in mm. Data was expressed as mean ± standard deviation of three replicates.

The test system of data set [5] is K. pneumoniae ATCC 13883. As to the kind of experiment: Agar well diffusion, K. pneumoniae. It counts as cell-based. The settings on record: Klebsiella pneumoniae, ATCC13883; 100 μl of test compound 20 mg/ml in DMF; ciprofloxacin and fluconazole 30 μg/ml; 24 h; mean ± SD; read-out: diameters of inhibition zone, K. pneumoniae ATCC 13883. The method, then: as §2
A general note: A growth-free zone around the sample is the usual read-out of agar diffusion tests.

The test system of data set [6] is S. aureus ATCC 6538. The data set is described as follows: MIC determination, S. aureus. It counts as cell-based, Staphylococcus aureus. The settings on record: Staphylococcus aureus, ATCC6538; serial dilutions, triplicate. The method, then: as §1
Data set [7] has as its system P. aeruginosa ATCC 27953. The data set is described as follows: Agar well diffusion, P. aeruginosa. It counts as cell-based. The settings on record: Pseudomonas aeruginosa, ATCC27953; 100 μl of test compound 20 mg/ml in DMF; ciprofloxacin and fluconazole 30 μg/ml; 24 h; mean ± SD; read-out: diameters of inhibition zone, P. aeruginosa ATCC 27953. The method, then:
as §2

In data set [8] the test system is B. cereus ATCC 6629. The data set is described as follows: Agar well diffusion, B. cereus. The format is cell-based. The settings on record: Bacillus cereus, ATCC6629; 100 μl of test compound 20 mg/ml in DMF; ciprofloxacin and fluconazole 30 μg/ml; 24 h; mean ± SD; read-out: diameters of inhibition zone, B. cereus ATCC 6629. The method, then: as §2
Data set [9] concerns B. cereus ATCC 6629. The data set is described as follows: MIC determination, B. cereus. The settings on record: serial dilutions, triplicate; for MIC: Bacillus cereus, ATCC6629. The format is cell-based, Bacillus cereus. The method, then: as §1
Data set [10] in a line: Cell viability MTT assay. It counts as cell-based. The settings on record: human, BJ1 cells (normal skin fibroblasts). The method, then:
Cell viability testing at 5 mg/ml was carried out by colorimetric MTT assay on human normal cell line BJ1 (skin fibroblasts) to investigate the toxicity of the most broad spectrum derivatives 9, 15, 16, 18, 19, 20 and 29 (Table 3). The viability of the cells treated with the aforementioned derivatives was more than 87% at 5 mg/ml concentration. This gives indication that the compounds are tolerated and nontoxic for human cells, as the cytotoxic dose was higher than the therapeutic dose on most of microorganisms. It is worth mentioning that the safe limit of the percent of dead cells is not an absolute value and could be more than 10% as reported in previous studies.
The most broad spectrum compounds were evaluated for their cytotoxic activity against BJ1 cell line using colorimetric MTT [3-(4,5-dimethylthiazol-2-yl)-2,5-diphenyltetrazolium bromide] assay.
A general note: Formazan colour is commonly taken as a measure of viable cells.

Data set [11] deals with B. subtilis ATCC 6633. As to the kind of experiment: MIC determination, B. subtilis. It counts as cell-based, Bacillus subtilis. The settings on record: serial dilutions, triplicate; for MIC: Bacillus subtilis, ATCC6633. How it is done: as §1
Data set [12] deals with B. subtilis ATCC 6633. As to the kind of experiment: Agar well diffusion, B. subtilis. It counts as cell-based. The settings on record: Bacillus subtilis, ATCC6633; 100 μl of test compound 20 mg/ml in DMF; ciprofloxacin and fluconazole 30 μg/ml; 24 h; mean ± SD; read-out: diameters of inhibition zone, B. subtilis ATCC 6633. The method, then:
as §2

Data set [13] has as its system P. aeruginosa ATCC 27953. As to the kind of experiment: Inhibition of exopolysaccharide (EPS) production. The format is cell-based, Pseudomonas aeruginosa. The settings on record: means ± standard errors. The method, then:
The inhibition of exopolysaccharide production by P. aeruginosa ATCC 27953 using quinazolinone derivatives was assessed according to total carbohydrate measurement.
P. aeruginosa’s biofilm was grown in the presence or absence of compounds (19, 20). Cells were incubated for 1 h with an equal volume of 5% (v/v) phenol and 5 × volume of concentrated sulfuric acid containing 0.2% (w/v) hydrazine sulphate then centrifuged at 10,000 g for 10 min (Z 326 K, HERMLE Labortechnik GmbH, Wehingen, Germany). The optical density of the supernatant was measured at 490 nm and the reduction in EPS was calculated as follows: EPSquantification%=OD490ofcontrol-OD490oftest/OD490ofcontrol×100

Data set [14] deals with Pseudomonas aeruginosa ATCC 27953. As to the kind of experiment: Twitching motility assay. It counts as cell-based. How it is done: 5 µL of overnight-grown bacteria were stab-inoculated into Luria Bertani (LB) soft or quasi-solid plates containing 0.3% agar mixed with different concentrations of compounds 19, 20 and further incubated overnight in an upright position. The visible detectable distance of corrugated trails of twitching zones, away from the inoculation center at the petri dish-agar interface, was measured afterwards. The results were recorded as the average of several diameters’ measurements. DMF was used as a negative control. The experiments were performed in triplicate and represented as the mean of three measurements.

Data set [15] has as its system P. aeruginosa ATCC 27953. As to the kind of experiment: Bacterial cell surface hydrophobicity (CSH) assay (MATH / BATH). The format is cell-based, Pseudomonas aeruginosa. The settings on record: increasing concentrations, toluene partition (Fig. 6). The method, then:
The effect of the test compounds 19 and 20 on cell surface hydrophobicity was investigated via the microbial or bacterial adherence to hydrocarbons (MATH / BATH) assay. Exponentially growing culture of P. aeruginosa ATCC 27953 incubated with or without test compounds were centrifuged, the pellets were re-suspended and OD600 was measured using UV/Vis spectrophotometer (Jasco V-630, Tokyo, Japan) to give Ao. The re-suspended cells were vigorously mixed with toluene followed by measuring the OD600 of the aqueous phase to give At. The hydrophobicity index was calculated as follows: Hydrophobicityindex=Ao-At/Ao×100

Data set [16] has as its system K. pneumoniae ATCC 13883. As to the kind of experiment: MIC determination, K. pneumoniae. It counts as cell-based, Klebsiella pneumoniae. The settings on record: serial dilutions, triplicate; for MIC: Klebsiella pneumoniae, ATCC13883. The method, then: as §1
Data set [17] has as its system Candida albicans. More on the design: method as in doi:10.1002/slct.201803795. The settings on record: read-out: anti-biofilm activity IC50; cited from earlier work.

≈ marks a conversion by molar mass, not a printed value. Where “and” joins values, the source holds several entries; their conditions need not be identical. Equal values may be shown once.

Regarding `Nc1nc(-c2cccc(Br)c2)cc(-c2nc3ccccc3c(=O)[nH]2)n1` [IV], the IC50 (in general, the concentration that inhibits the measured activity by half) in data set [1] was 20.7 µM.
Take `O=c1c2ccccc2nc(CN2CCCC2)n1N=Cc1ccc([N+](=O)[O-])cc1` [Compound 20, 3-[(4-Nitrobenzylidene)amino]-2-(pyrrolidin-1-ylmethyl)quinazolin-4(3H)-one]: the melting point (usually the temperature of the solid-liquid transition) amounted to 156 °C. Further, in [2], the MIC (as a rule, the least concentration at which growth counts as inhibited) is 250 µg/mL (≈ 662 µM) and the “MIC, P. aeruginosa ATCC 27953” value was found to be 250 ± 140 µg/mL (≈ 662 µM). Also, in data set [3], the IC50 was 6.86 µM and 2.59 µg/mL. Further, the zone of inhibition – broadly, the extent of the growth-free halo in a diffusion test – at 20000 µg/mL in [4] came out at 13 ± 0.11 mm. In addition, the zone of inhibition at 20000 µg/mL in data set [5] stood at 16 ± 0.09 mm. The compound also came in with a minimum inhibitory concentration (MIC) in [6] of 15000 ± 500 µg/mL (≈ 39700 µM). For the same compound, in data set [7], the zone of inhibition at 20000 µg/mL is 21 ± 0.17 mm. Also, in data set [8], the zone of inhibition at 20000 µg/mL turned out to be 16 ± 0.07 mm. Also, in data set [9], it took 250 µg/mL (≈ 662 µM) to inhibit growth (MIC) and the “MIC, B. cereus ATCC 6629” value came to 250 ± 0 µg/mL (≈ 662 µM). The viability (commonly the share of living cells, or the viability signal relative to a control) at 5 mg/ml in [10] was 88.1 ± 1.81%. In addition, in data set [11], the lowest concentration to inhibit growth (MIC) was 500 µg/mL (≈ 1320 µM) and the “MIC, B. subtilis ATCC 6633” value is 500 ± 0 µg/mL (≈ 1320 µM). The zone of inhibition at 20000 µg/mL in data set [12] was found to be 10 ± 0.12 mm. Also, in [13] (1/4 MIC), the “% EPS inhibition” value is 21.51 ± 3.26%. In data set [13] (1 MIC), the “% EPS inhibition” value worked out at 47.84 ± 3.00%. Further, the “% EPS inhibition” value in [13] (2 MIC) was 61.50 ± 2.83%. Also, the “effect on twitching motility” value in [14] (starting from sub-MIC equal to half the MIC dose) is recorded as “remarkably blocked”. For the same compound, in [15], the “effect on hydrophobicity index (CSH)” value was “reduced hydrophobicity index”. For the same compound, in [16], the minimum inhibitory concentration (MIC) was found to be 500 µg/mL (≈ 1320 µM) and the “MIC, K. pneumoniae ATCC 13883” value was found to be 500 ± 290 µg/mL (≈ 1320 µM).
With `COc1cc(OC)c(-c2nc3ccccc3c(=O)[nH]2)c(OC)c1` [V], in data set [17], the IC50 was below 30 µM.
With `COc1cc(C=Nn2c(CN3CCCC3)nc3ccccc3c2=O)cc(OC)c1OC` [Compound 19, 2-(Pyrrolidin-1-ylmethyl)-3-[(3,4,5-trimethoxybenzylidene)amino]quinazolin-4(3H)-one], the melting point turned out to be 166 °C. In data set [2], the MIC is 150 µg/mL (≈ 355 µM) and the “MIC, P. aeruginosa ATCC 27953” value is 150 ± 60 µg/mL (≈ 355 µM). Also, the IC50 in data set [3] was 3.55 µM and 1.5 µg/mL. Moreover, the zone of inhibition at 20000 µg/mL in data set [5] amounted to 18 ± 0.24 mm. Besides, in data set [7], the zone of inhibition at 20000 µg/mL came out at 16 ± 0.18 mm. Besides, in [8], the zone of inhibition at 20000 µg/mL turned out to be 17 ± 0.22 mm. In data set [9], the MIC was 10000 ± 500 µg/mL (≈ 23700 µM). For the same compound, the viability at 5 mg/ml in data set [10] worked out at 92.3 ± 3.37%. In addition, the minimal inhibitory concentration (MIC) in [11] is 1000 ± 290 µg/mL (≈ 2370 µM). Also, the zone of inhibition at 20000 µg/mL in [12] is 14 ± 0.31 mm. The “% EPS inhibition” value in [13] (1/4 MIC) is recorded as 54.15 ± 4.00%. Moreover, the “% EPS inhibition” value in data set [13] (1 MIC) is on record as 55.93 ± 3.31%. For the same compound, the “% EPS inhibition” value in data set [13] (2 MIC) was found to be 63.79 ± 2.70%. In data set [14] (highest tested concentration (= MIC)), the “change in twitching zone diameter” value came to 30%. Also, in [15], the “effect on hydrophobicity index (CSH)” value was “no evident effect on CSH”. This compound gave an MIC in data set [16] of 1000 ± 290 µg/mL (≈ 2370 µM).
